Measured values: patent US9957230B2, “Synergistic compositions” (Cadila Healthcare Limited, priority 2013, dated 2018)

Legend:
Type in all cases: in vivo
db/db mice [1] = assay: Antidiabetic activity in db/db mice (studies I and II): non-fasting serum glucose; conditions: Compound (Ia) 0.1 mg/kg
Excerpt: The in-vivo efficacy for antidiabetic activity was done for (I) and (II) individually with db/db mice of 13-14 weeks of age.
8. […] 8. The treatment was given oral gavages once daily for 14 days. […]

db/db mice [2] = assay: Oral glucose tolerance test in db/db mice (studies I and II); conditions: Compound (Ia) 0.1 mg/kg; for AUC Glucose: OGTT day 14, fasting, glucose load 2 gm/kg
Excerpt: 8. […] 8. The treatment was given oral gavages once daily for 14 days.
The OGTT procedure followed is as given below—

db/db mice [3] = assay: Oral glucose tolerance test in db/db mice (studies VII and VIII); conditions: Compound Ia 0.1 mg/kg, Glimepiride 2 mg/kg p.o.; for % improvement in AUC glucose vs control: Table 31 and text, OGTT after 7 days of treatment
Excerpt: (§1) In this experiment, 49 db/db mice of 12-16 week were divided into 7 groups and as per their day 0 serum glucose levels. […] Detail treatments and routes of administrations were mentioned in Table no. 27. The treatment was given once daily for 7 days.
(§2) The blood was collected by retro-orbital sinus puncture method under light ether anesthesia on day 0 (pretreatment) and on day 6 (one hour after dose administration) for non-fasting glucose analysis and oral glucose tolerance test (OGTT) was performed on day 7 of the treatment in fasting condition. After blood collection serum was separated and analyzed glucose analysis using Spectra max and commercial diagnostic kits. The OGTT procedure followed is as given below—
Oral Glucose Tolerance Test (OGTT): One day before OGTT all animals were kept on overnight fasting and on the day of OGTT, day 7 of the treatment each animal was dosed with a single dose of vehicle/test compounds administered orally and 60-min post dosing blood was collected (0 min) and glucose load (2 gm/kg/10 ml) administered per orally. Blood was then collected at time points corresponding to 30, 60 and 120 min after glucose load administration. Serum was separated and analyzed for glucose using Spectra max and commercial diagnostic kits.
(§3) The calculation for antidiabetic activity i.e. effect on serum glucose and improvement in glucose Area Under Curve (AUC) was calculated using the excel sheet and Graph Pad Prism software. The day-0 and day-6 glucose values of vehicle control and treatment were considered for calculating the effect on serum glucose. The effect on glucose AUC was calculated using the OGTT glucose levels at different time points and the improvement in glucose AUC were the reduction in glucose AUC after the treatment during OGTT.

db/db mice [4] = assay: Antidiabetic activity with Exenatide or Glimepiride in db/db mice (studies VII and VIII): non-fasting serum glucose; conditions: Compound Ia 0.1 mg/kg
Excerpt: The in-vivo efficacy for antidiabetic activity was done in male and female db/db mice of 12-16 weeks of age. Generally obese and diabetic animals are insulin resistant and have abnormalities in glucose and lipid metabolism. The development of diabetes and beta cell dysfunction in these animal models closely parallels the pathophysiology of the disease condition in humans. […] They progressively develop into insulinopenia with age, a feature commonly observed in last stage of type-2 diabetes, when blood sugar levels are insufficiently controlled. Therefore, this genetic model proves to be suitable for predicting the likely therapeutic benefit of novel euglycemic agents in human type-2 diabetes.
as §1, §2, §3

Swiss albino mice = assay: Triglyceride lowering effects of various salts in Swiss albino mice; conditions: dose equivalent to 1 mg/kg free acid; for Serum triglycerides (mg/dl) Day 0: Day 0 (pretreatment); for Serum triglycerides (mg/dl) Day 0 / Serum triglycerides (mg/dl) Day 6: male Swiss albino mice; for Serum triglycerides (mg/dl) Day 6: Day 6, one hr after dose; for % Change Vs control: serum triglycerides vs vehicle control after 6 days; for % Change Day 6 vs Day 0: serum triglycerides
Experimental: Comparative Efficacy Study of (Triglyceride Lowering Effects) of Various Salts of Compound (Ia) in Swiss Albino Mice.
The in-vivo efficacy of compound (I) was evaluated in Swiss albino mice. Anti-dyslipidemic drugs have been reported to lower circulating levels of triglyceride in Swiss albino mice through their effect on genes involved in the peroxisomal fatty acid beta oxidation via PPAR alpha agonism. Therefore, this species is preferred for evaluation of their efficacy in lowering circulating triglyceride (TG) levels.
In this experiment, six to eight week old male Swiss albino mice were issued and kept for acclimatization. Near the end of the acclimatization period, animals judged to be suitable for testing were bled under light ether anesthesia and serum samples were analyzed for Serum triglyceride levels.
Test compound was formulated at specified doses in vehicle (10% Polyethylene glycol (PEG) 400+90% of 0.5% Sodium Carboxy methyl cellulose). The animals were dosed orally, once daily in the morning during six days, starting from next day of grouping with vehicle or test compound. The animals were weighed prior to dosing, and based on these weights; the volume of administration was calculated. The volume of formulation administered to each mouse was 10 ml/kg body weight.
On day 6 one hr after the dose administration, blood (0.25 ml) was collected from retro-orbital sinus of the anaesthetized animals. Serum was separated by centrifugation. Serum was analyzed for triglyceride levels. Analysis for serum triglyceride levels was performed using a Spectrophotometer and commercially available kit. Calculations for determination of % change and % reduction in serum TG levels were performed using MS Excels sheet.

[5] = Table 3, oral once daily 6 days
[6] = Table 5, oral once daily 6 days

Compound: N[C@@H](CC(=O)N1CCn2c(nnc2C(F)(F)F)C1)Cc1cc(F)c(F)cc1F [Sitagliptin, reference compound]
- Serum Glucose (mg/dl) Day 0 (db/db mice [1]; Table 9, Day 0 (pretreatment), female db/db mice, Sitagliptin 3 mg/kg p.o. once daily): 407.9 ± 34.5 mg/dL
- Serum Glucose (mg/dl) Day 12 (db/db mice [1]; Table 9, Day 12, non-fasting, female db/db mice, Sitagliptin 3 mg/kg p.o. once daily): 485.3 ± 50.5 mg/dL
- % Change Vs control (db/db mice [1]; Table 9, serum glucose day 12 vs vehicle control, Sitagliptin 3 mg/kg p.o. once daily): 18.5 ± 5.0%
- % Change Day 12 vs Day 0 (db/db mice [1]; Table 9, serum glucose, Sitagliptin 3 mg/kg p.o. once daily): 18.3 ± 5.0%
- reduction in serum glucose (db/db mice [1]; female db/db mice, Sitagliptin 3 mg/kg, Metformin 150 mg/kg): does not show any reduction rather it has shown slight increase in serum glucose
- AUC Glucose (db/db mice [2]; Table 10, Sitagliptin 3 mg/kg p.o.): 64655.9 ± 6300.6 mg·min/dL

Compound: CN(C)C(=N)N=C(N)N [Metformin, 1,1-Dimethylbiguanidine, reference compound]
- % improvement in AUC glucose vs control (db/db mice [2]; Table 12, OGTT after 14 days of treatment, Metformin 150 mg/kg p.o.): 20.4%
- AUC Glucose (db/db mice [2]; Table 12, Metformin 150 mg/kg p.o.): 45255.9 mg·min/dL

Compound: CCC1=C(C)CN(C(=O)NCCc2ccc(S(=O)(=O)NC(=O)N[C@H]3CC[C@H](C)CC3)cc2)C1=O [Glimepiride, reference compound]
- AUC Glucose (db/db mice [3]; Table 31, OGTT day 7, fasting, glucose load 2 gm/kg): 62529.0 mg·min/dL
- % improvement in AUC glucose vs control (db/db mice [3]): −2.6%
- % improvement in AUC glucose vs control (db/db mice [3]; listed as glimepiride): does not any improvement
- Serum Glucose (mg/dl) Day 0 (db/db mice [4]; Table 30, Day 0 (pretreatment), male and female db/db mice, Glimepiride 2 mg/kg p.o. once daily): 402.0 mg/dL
- Serum Glucose (mg/dl) Day 6 (db/db mice [4]; Table 30, Day 6, one hour after dose, non-fasting, Glimepiride 2 mg/kg p.o. once daily): 506.7 mg/dL
- % Change Day 6 vs Day 0 (db/db mice [4]; Table 30, serum glucose, Glimepiride 2 mg/kg p.o.): 26.9%
- % Change Vs control (db/db mice [4]; Table 30 and text, serum glucose day 6 vs vehicle control, Glimepiride 2 mg/kg p.o.): 10.1%

Compound: Benzenepropanoic acid, α-ethoxy-4-[2-[2-methyl-5-[4-(methylthio) phenyl]-1H -pyrrol-1-yl] ethoxy]-, magnesium salt [Compound (Ia)]
- Serum triglycerides (mg/dl) Day 0 (Swiss albino mice; [5]): 117.7 ± 13.8 mg/dL
- Serum triglycerides (mg/dl) Day 6 (Swiss albino mice; [5]): 38.2 ± 4.1 mg/dL
- % Change Vs control (Swiss albino mice; Table 3, oral): −66.1 ± 4.2%
- % Change Day 6 vs Day 0 (Swiss albino mice; [5]): −66.5 ± 4.1%
- Serum triglycerides (mg/dl) Day 0 (Swiss albino mice; [6]): 91.4 ± 8.8 mg/dL
- Serum triglycerides (mg/dl) Day 6 (Swiss albino mice; [6]): 37.4 ± 3.2 mg/dL
- % Change Vs control (Swiss albino mice; Table 5, oral): −60.5 ± 3.5%
- % Change Day 6 vs Day 0 (Swiss albino mice; [6]): −58.3 ± 3.7%
- Serum triglycerides (mg/dl) Day 0 (Swiss albino mice; Table 7, po once daily 6 days): 111.1 ± 8.4 mg/dL
- Serum triglycerides (mg/dl) Day 6 (Swiss albino mice; Table 7, po once daily 6 days): 36.9 ± 2.9 mg/dL
- % Change Vs control (Swiss albino mice; Table 7, po): −61.5 ± 4.6%
- % Change Day 6 vs Day 0 (Swiss albino mice; Table 7, po once daily 6 days): −65.5 ± 4.2%

Compound: (S) 2-Ethoxy-3-(4-{2-[2-methyl-5-(4-methylthiophenyl)-pyrrol-1-yl]-ethoxy}-phenyl)-propionic acid Dibenzylamine salt [Dibenzylamine salt of Formula (I)]
- Serum triglycerides (mg/dl) Day 0 (Swiss albino mice; [6]): 91.0 ± 6.7 mg/dL
- Serum triglycerides (mg/dl) Day 6 (Swiss albino mice; [6]): 42.1 ± 2.9 mg/dL
- % Change Vs control (Swiss albino mice; Table 5, oral): −54.4 ± 5.8%
- % Change Day 6 vs Day 0 (Swiss albino mice; [6]): −51.8 ± 6.1%
